As a reminder, the IC50 is the concentration that gives 50% inhibition.

One experiment concerns the target T1, IDH1 R132C (Homo sapiens, UniProt O75874, R132C).
T1 construct: 6xHis
In words: Biochemical assay for IDH inhibition (NADPH fluorescence), mutant IDH1 R132C. Particulars: 25 nM IDH1-R132C, 1 hour pre-incubation, in triplet. The source says:
(§1) The present disclosure provides a biochemical assay method for detecting the IDH inhibition and selectivity of the compounds by detecting IDH enzyme activity directly.
(§2) Wild-type IDH enzymes convert NADP^+ to NADPH when catalyzing the α-KG producing reaction. Mutant IDH enzymes convert NADPH to NADP^+ when catalyzing the D-2-HG producing reaction. So, the activity of wild-type and mutant IDH1/2 could be measured by monitoring NADPH level change as NADPH is fluorescent (Excitation 340 nm, Emission 460 nm). By monitoring the change of NADPH level in the reaction, the enzyme activity could be determined rapidly and efficiently and IC50 of a compound could also be assayed.
(§3) The test compounds are prepared into 50 mM stock solutions in DMSO and stored at −20° C. Each test compound stock is further diluted to obtain a 100× stock solution at a concentration of 400 μM, 200 μM, 100 μM, 50 μM, 25 μM, 12.5 μM, 6.25 μM and 3.125 μM, respectively, for the final use on the day of test (the concentration range of 100× stock solutions might be adjusted to cover the estimated IC50 of a specific test compound).
(§4) Inhibition of Mutant IDH1 (R132H or R132C):
(§5) To assay the enzymatic activity of mutant IDH1 proteins, 25 nM IDH1-R132C or 50 nM IDH1-R132H protein solutions are prepared in 20 mM Tris-HCl pH7.5, 150 mM NaCl, 10 mM MgCl2, 1 mM DTT, 0.05 mg/ml BSA and 1.33 mM α-KG. 148 μL 25 nM IDH1-R132C or 50 nM IDH1-R132H protein solutions are mixed with 2 μL DMSO (vehicle control for test compounds) or an above-mentioned 100× stock solution of a test compound and incubated for 1 hour at room temperature. Extra reactions containing 148 μL no-enzyme solution (20 mM Tris-HCl pH7.5, 150 mM NaCl, 10 mM MgCl2, 1 mM DTT, 0.05 mg/ml BSA and 1.33 mM α-KG) and 2 μL DMSO are also set up as background controls. Then each reaction is initiated by adding 50 μL 80 μM NADPH solution prepared in 20 mM Tris-HCl pH7.5, 150 mM NaCl, 10 mM MgCl2, 1 mM DTT and 0.05 mg/ml BSA. BioTek Synergy H1 Microplate reader (BioTek Instruments Inc., Winooski, U.S.) is employed to monitor the NADPH fluorescence (Excitation 340 nm, Emission 460 nm) every 42 seconds for 15 minutes. NADPH change rate is determined according to the linear phase of the fluorescence-time curve and results from the background control reactions are used as background subtraction to calculate the net NADPH change rates of other reactions. The net NADPH change rates from the vehicle control reactions are used as 100% enzymatic activity and thus the relative enzymatic activity of reactions with test compounds added could be determined. Then a dose-response curve is drawn for each test compound and the corresponding IC50 is calculated. The IC50 value is used to evaluate the inhibition and selectivity of each test compound on the IDH enzymatic activity.
(§6) The IDH inhibition activity of the compounds were assessed according to Test 2 of the Biological Assay section. The test for mutant IDH1 R132H and IDH1 R132C inhibition of each compound was carried out in triplet. As used in Table 5, “A” refers to an inhibitory activity against IDH1 R132H or IDH1 R132C with an IC50<0.1 μM; “B” refers to an inhibitory activity against IDH1 R132H or IDH1 R132C with an IC50 from 0.1 μM to 0.5 μM; “C” refers to an inhibitory activity against IDH1 R132H or IDH1 R132C with an IC50 from 0.5 μM to 1 μM; “D” refers to an inhibitory activity against IDH1 R132H or IDH1 R132C with an IC50>1 μM.

Experiment [1] has as its target T2, IDH (endogenous IDH1 R132C) in HT1080 cell (Homo sapiens, UniProt O75874, R132C).
T2 construct: which harbor endogenous heterozygous IDH1 R132C and R132H mutation respectively and accumulate D-2-HG
Description: Cell-based assay for IDH inhibition (decrease of D-2-HG) in HT1080 cells. Particulars: human fibrosarcoma cell line HT1080, 16 hours treatment, D-2-HG by LC-MS, in triplet. From the text:
The present disclosure also provides a cell-based method for assaying IDH inhibition and selectivity of the compounds in human fibrosarcoma cell line HT1080 and cholangiocarcinoma cell line HCCC 9810, which harbor endogenous heterozygous IDH1 R132C and R132H mutation respectively and accumulate D-2-HG. Tumor -derived IDH mutant lost its normal activity of producing α-KG, and gained a new activity of producing D-2-HG. D-2-HG is a metabolite specifically elevated in tumor cells expressing mutant IDH1 or IDH2 proteins. When treating such mutant IDH-expressing tumor cells with an effective IDH inhibitor, the synthesis of D-2-HG is blocked, and D-2-HG concentration is decreased by the oxidation reaction catalyzed by the endogenous D-2-HG dehydrogenase.
To perform a cell-based IDH inhibition assay, HT1080 and HCCC 9810 cells (or other cell lines harboring different IDH mutations) are cultured in DMEM supplemented with 10% FBS. The cells are treated with compounds of present disclosure at various different concentrations. 16 hours after the treatment, culture medium supernatants are removed and cell metabolites are extracted by 40% methanol and 40% acetonitrile in water (pre-chilled under −80° C.) at 4° C. for 1 hour. The extract supernatants are collected and cell debris are removed via high speed centrifugation. The resulting metabolite extracts are analyzed on an Agilent LC-MS system (model: 1290-6470) for 2-HG and glutamate concentration. A HILIC-Z column (2.1 mm×100 mm, […]) is employed on HPLC. Mobile phase A is 15 mM CH3COONH4 and 0.3% NH3·H2O in water. Mobile phase B is 15 mM CH3COONH4 and 0.3% NH3·H2O in 90% MeCN/10% H2O solvent. An 19% solvent A and 81% solvent B isocratic gradient method is used at a flow rate of 0.3 ml/min. D-2-HG is ionized under negative ion spray mode and detected through the multiple-reaction monitoring of a mass transition pair at m/z=147.0/128.9 and 147.0/85.1. Glutamate is ionized under ion spray mode and detected on negative polarity multiple-reaction monitoring of a mass transition pair at m/z=146/102 and 146/128 and its level is used to normalize 2-HG concentration. The activity of cellular mutant IDH proteins in the presence of each test compound at different concentrations can be represented by relative D-2-HG concentration to negative control samples (i.e., cells are treated with DMSO only), and the IC50 value could be determined to evaluate the inhibition and selectivity of each test compound on the IDH enzymatic activity.
The IDH inhibition activity of the compounds were assessed in human fibrosarcoma cell line HIT1080 according to Test 3 of the Biological Assay section. The test for IDH inhibition of each compound was carried out in triplet. As used in Table 6, “A” refers to an IDH inhibitory activity with an IC50<0.1 μM; “B” refers to an IDH inhibitory activity with an IC50 from 0.1 μM to 0.5 μM; “C” refers to an IDH inhibitory activity with an IC50 from 0.5 μM to 1 μM; “D” refers to an IDH inhibitory activity with an IC50>1 μM.

The target in the next experiment is T3, IDH1 R132H (Homo sapiens, UniProt O75874, R132H).
T3 construct: 6xHis
T3 sequence (O75874 whole entry R132H): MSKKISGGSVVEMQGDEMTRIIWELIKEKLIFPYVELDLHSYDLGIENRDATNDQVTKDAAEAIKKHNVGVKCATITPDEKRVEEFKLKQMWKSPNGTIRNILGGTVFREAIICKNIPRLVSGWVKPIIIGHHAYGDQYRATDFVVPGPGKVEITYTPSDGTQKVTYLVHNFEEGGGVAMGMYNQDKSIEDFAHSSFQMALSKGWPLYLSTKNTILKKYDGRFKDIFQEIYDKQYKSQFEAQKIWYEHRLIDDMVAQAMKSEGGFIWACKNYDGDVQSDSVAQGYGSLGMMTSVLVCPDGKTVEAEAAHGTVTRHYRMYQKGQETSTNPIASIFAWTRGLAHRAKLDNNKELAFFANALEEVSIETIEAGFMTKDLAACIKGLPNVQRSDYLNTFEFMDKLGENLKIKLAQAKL
Description: Biochemical assay for IDH inhibition (NADPH fluorescence), mutant IDH1 R132H. Particulars: 50 nM IDH1-R132H, 1 hour pre-incubation, in triplet.
From the text: as §1, §2, §3, §4, §5, §6

A value given as a limit tells only on which side of the number the result lay.

T1 sequence (O75874 whole entry R132C): as the sequence (O75874 whole entry R132H) above, with H132C counted along it
T2 sequence (O75874 2-414 R132C): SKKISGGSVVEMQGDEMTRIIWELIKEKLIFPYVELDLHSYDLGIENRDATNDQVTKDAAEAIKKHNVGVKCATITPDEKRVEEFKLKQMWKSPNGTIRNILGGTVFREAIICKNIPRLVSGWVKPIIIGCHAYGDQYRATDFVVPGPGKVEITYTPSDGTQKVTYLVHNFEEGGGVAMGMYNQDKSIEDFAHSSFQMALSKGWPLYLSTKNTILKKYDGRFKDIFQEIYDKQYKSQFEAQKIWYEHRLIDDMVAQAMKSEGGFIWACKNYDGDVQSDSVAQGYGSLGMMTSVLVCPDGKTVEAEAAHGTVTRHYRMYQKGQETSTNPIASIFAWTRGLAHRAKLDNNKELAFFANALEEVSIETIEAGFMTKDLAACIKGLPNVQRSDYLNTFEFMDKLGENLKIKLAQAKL

For the molecule `CCN1Cc2c(ccnc2N[C@@H](C)c2cc(F)c(O[C@H]3C[C@@H](C)CC(C)(C)C3)cc2F)C1=O` [Compound 24, 4-(((S)-1-(2,5-difluoro-4-(((1S,5S)-3,3,5-trimethylcyclohexyl)oxy)phenyl)ethyl)amino)-2-ethyl-2,3-dihydro-1H-pyrrolo[3,4-c]pyridin-1-one], the half-inhibitory concentration (IC50) (on IDH1 R132C; in experiment [1]; at IDH1 R132H) was below 100 nM throughout.
As for `CCN1Cc2c(ccnc2N[C@@H](C)c2ccc(Oc3ccnc(C(C)(C)C)c3)c(F)c2)C1=O` [Compound 25, (S)-4-((1-(4-((2-(tert-butyl)pyridin-4-yl)oxy)-3-fluorophenyl)ethyl)amino)-2-ethyl-2,3-dihydro-1H-pyrrolo[3,4-c]pyridin-1-one], the IC50 on IDH1 R132C is 100 to 500 nM; in experiment [1], 500 to 1000 nM; at IDH1 R132H, 100 to 500 nM.
With `CCN1Cc2c(ccnc2N[C@@H](C)c2ccc(Oc3ccnc(C(F)(F)F)c3)c(F)c2)C1=O` [Compound 26, (S)-2-ethyl-4-((1-(3-fluoro-4-((2-(trifluoromethyl)pyridin-4-yl)oxy)phenyl)ethyl)amino)-2,3-dihydro-1H-pyrrolo[3,4-c]pyridin-1-one], the IC50 (at IDH1 R132C; in experiment [1]; on IDH1 R132H) was above 1000 nM each time.
For `CCN1Cc2c(ccnc2N[C@@H](C)c2ccc(OC3CCC(F)(F)C3)c(F)c2)C1=O` (stereo partly drawn) [Compound 27, 4-(((1S)-1-(4-((3,3-difluorocyclopentyl)oxy)-3-fluorophenyl)ethyl)amino)-2-ethyl-2,3-dihydro-1H-pyrrolo[3,4-c]pyridin-1-one], the IC50 (at IDH1 R132C; in experiment [1]; at IDH1 R132H) was above 1000 nM each time.
With `CCN1Cc2c(ccnc2N[C@@H](C)c2ccc(OCC3CNC3)c(F)c2)C1=O` [Compound 28, (S)-4-((1-(4-(azetidin-3-ylmethoxy)-3-fluorophenyl)ethyl)amino)-2-ethyl-2,3-dihydro-1H-pyrrolo[3,4-c]pyridin-1-one], the IC50 (at IDH1 R132C; in experiment [1]; at IDH1 R132H) was above 1000 nM in each case.
With `CCN1Cc2c(ccnc2N[C@@H](C)c2ccc(Oc3ccc4c(c3)CCN4C)c(F)c2)C1=O` [Compound 29, (S)-2-ethyl-4-((1-(3-fluoro-4-((1-methylindolin-5-yl)oxy)phenyl)ethyl)amino)-2,3-dihydro-1H-pyrrolo[3,4-c]pyridin-1-one], the IC50 on IDH1 R132C is 500 to 1000 nM; in experiment [1], above 1000 nM; on IDH1 R132H, 100 to 500 nM.
The corresponding values for `CCN1Cc2c(ccnc2N[C@@H](C)c2ccc(Oc3ccnc4ccccc34)c(F)c2)C1=O` [Compound 30, (S)-2-ethyl-4-((1-(3-fluoro-4-(quinolin-4-yloxy)phenyl)ethyl)amino)-2,3-dihydro-1H-pyrrolo[3,4-c]pyridin-1-one] are above 1000 nM, above 1000 nM and 500 to 1000 nM.
The corresponding values for `CCN1Cc2c(ccnc2N[C@@H](C)c2ccc(N(C)c3ccccc3)c(F)c2)C1=O` [Compound 31, (S)-2-ethyl-4-((1-(3-fluoro-4-(methyl(phenyl)amino)phenyl)ethyl)amino)-2,3-dihydro-1H-pyrrolo[3,4-c]pyridin-1-one] are above 1000 nM, above 1000 nM and above 1000 nM.
For the molecule `CCN1Cc2c(ccnc2N[C@@H](C)c2ccc(Nc3ccccc3)c(F)c2)C1=O` [Compound 32, (S)-2-ethyl-4-((1-(3-fluoro-4-(phenylamino)phenyl)ethyl)amino)-2,3-dihydro-1H-pyrrolo[3,4-c]pyridin-1-one], the IC50 (on IDH1 R132C; in experiment [1]; at IDH1 R132H) was above 1000 nM each time.
Regarding `CCN1Cc2c(ccnc2N[C@@H](C)c2ccc(-c3ccc(C(F)(F)F)cc3)c(F)c2)C1=O` [Compound 33, (S)-2-ethyl-4-((1-(2-fluoro-4′-(trifluoromethyl)-[1,1′-biphenyl]-4-yl)ethyl)amino)-2,3-dihydro-1H-pyrrolo[3,4-c]pyridin-1-one], the IC50 on IDH1 R132C was above 1000 nM; in experiment [1], above 1000 nM; at IDH1 R132H, 500 to 1000 nM.
For `CCN1Cc2c(ccnc2N[C@@H](C)c2ccc(-c3ccnc(C(F)(F)F)c3)c(F)c2)C1=O` [Compound 34, (S)-2-ethyl-4-((1-(3-fluoro-4-(2-(trifluoromethyl)pyridin-4-yl)phenyl)ethyl)amino)-2,3-dihydro-1H-pyrrolo[3,4-c]pyridin-1-one], the half-inhibitory concentration (IC50) (on IDH1 R132C; in experiment [1]; on IDH1 R132H) was above 1000 nM each time.
Consider `CCN1Cc2c(ccnc2N[C@@H](C)c2ccc(C3=CCN(C(C)(C)C)CC3)c(F)c2)C1=O` [Compound 35, (S)-4-((1-(4-(1-(tert-butyl)-1,2,3,6-tetrahydropyridin-4-yl)-3-fluorophenyl)ethyl)amino)-2-ethyl-2,3-dihydro-1H-pyrrolo[3,4-c]pyridin-1-one], for which the IC50 (at IDH1 R132C; in experiment [1]; on IDH1 R132H) was above 1000 nM in each case.

Source of the values: patent US12441725B2, “ISO-citrate dehydrogenase (IDH) inhibitor” (ZHEJIANG METON PHARMACEUTICAL CO., LTD, priority 2019, dated 2025).
